Data from ChEMBL document CHEMBL4261615, “Design, synthesis, biological evaluation and cellular imaging of imidazo[4,5-b]pyridine derivatives as potent and selective TAM inhibitors” (Bioorg Med Chem, 2018).
pIC50: −log10 of the molar value. Activity calls are given as the source filed them. No cut-off for these calls is given here.

Experiments:
[1] = molecular target: T1, Tyrosine-protein kinase Mer (Homo sapiens) (UniProt Q12866); assay: Inhibition of recombinant GST-tagged human Mer (578 to 872 residues) cytoplasmic domain expressed in Baculovirus system using poly (Glu-Ala-Tyr) peptide as substrate after 1.5 hrs by ELISA
T1 sequence (whole entry): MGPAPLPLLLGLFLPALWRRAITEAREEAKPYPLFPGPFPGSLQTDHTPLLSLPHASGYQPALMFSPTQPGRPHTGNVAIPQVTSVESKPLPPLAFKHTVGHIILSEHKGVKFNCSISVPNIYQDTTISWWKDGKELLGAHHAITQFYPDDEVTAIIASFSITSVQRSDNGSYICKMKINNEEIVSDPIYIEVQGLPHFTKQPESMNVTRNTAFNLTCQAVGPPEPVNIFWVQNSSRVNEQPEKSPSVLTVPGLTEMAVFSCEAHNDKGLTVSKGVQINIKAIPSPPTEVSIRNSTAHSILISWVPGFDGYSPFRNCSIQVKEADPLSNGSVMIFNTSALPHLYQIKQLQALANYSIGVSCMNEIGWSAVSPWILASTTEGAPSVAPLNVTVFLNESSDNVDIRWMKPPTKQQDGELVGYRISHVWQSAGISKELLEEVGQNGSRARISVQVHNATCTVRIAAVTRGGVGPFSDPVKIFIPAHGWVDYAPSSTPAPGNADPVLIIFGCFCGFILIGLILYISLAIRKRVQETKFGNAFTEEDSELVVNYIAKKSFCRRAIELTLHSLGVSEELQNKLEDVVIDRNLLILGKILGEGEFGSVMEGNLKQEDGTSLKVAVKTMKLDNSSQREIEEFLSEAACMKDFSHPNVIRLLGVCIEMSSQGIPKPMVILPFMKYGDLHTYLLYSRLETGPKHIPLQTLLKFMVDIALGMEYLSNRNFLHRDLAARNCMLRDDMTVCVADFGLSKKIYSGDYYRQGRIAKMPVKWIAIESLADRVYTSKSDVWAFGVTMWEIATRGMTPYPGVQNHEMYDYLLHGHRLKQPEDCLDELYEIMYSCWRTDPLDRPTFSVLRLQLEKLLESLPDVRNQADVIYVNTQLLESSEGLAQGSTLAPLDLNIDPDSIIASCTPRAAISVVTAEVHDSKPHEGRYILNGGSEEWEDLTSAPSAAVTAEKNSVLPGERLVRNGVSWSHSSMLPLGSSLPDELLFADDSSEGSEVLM

[2] = molecular target: Tyrosine-protein kinase receptor UFO (Homo sapiens) (UniProt P30530); assay: Inhibition of recombinant His-tagged human Axl (473 to end residues) cytoplasmic domain expressed in insect system using poly (Glu-Ala-Tyr) peptide as substrate after 1.5 hrs by ELISA
[3] = molecular target: T2, Tyrosine-protein kinase receptor TYRO3 (Homo sapiens) (UniProt Q06418); assay: Inhibition of recombinant GST-tagged human Tyro3 (451 to 890 residues) cytoplasmic domain expressed in Baculovirus expression system using poly (Glu-Ala-Tyr) peptide as substrate after 1.5 hrs by ELISA
T2 sequence (whole entry): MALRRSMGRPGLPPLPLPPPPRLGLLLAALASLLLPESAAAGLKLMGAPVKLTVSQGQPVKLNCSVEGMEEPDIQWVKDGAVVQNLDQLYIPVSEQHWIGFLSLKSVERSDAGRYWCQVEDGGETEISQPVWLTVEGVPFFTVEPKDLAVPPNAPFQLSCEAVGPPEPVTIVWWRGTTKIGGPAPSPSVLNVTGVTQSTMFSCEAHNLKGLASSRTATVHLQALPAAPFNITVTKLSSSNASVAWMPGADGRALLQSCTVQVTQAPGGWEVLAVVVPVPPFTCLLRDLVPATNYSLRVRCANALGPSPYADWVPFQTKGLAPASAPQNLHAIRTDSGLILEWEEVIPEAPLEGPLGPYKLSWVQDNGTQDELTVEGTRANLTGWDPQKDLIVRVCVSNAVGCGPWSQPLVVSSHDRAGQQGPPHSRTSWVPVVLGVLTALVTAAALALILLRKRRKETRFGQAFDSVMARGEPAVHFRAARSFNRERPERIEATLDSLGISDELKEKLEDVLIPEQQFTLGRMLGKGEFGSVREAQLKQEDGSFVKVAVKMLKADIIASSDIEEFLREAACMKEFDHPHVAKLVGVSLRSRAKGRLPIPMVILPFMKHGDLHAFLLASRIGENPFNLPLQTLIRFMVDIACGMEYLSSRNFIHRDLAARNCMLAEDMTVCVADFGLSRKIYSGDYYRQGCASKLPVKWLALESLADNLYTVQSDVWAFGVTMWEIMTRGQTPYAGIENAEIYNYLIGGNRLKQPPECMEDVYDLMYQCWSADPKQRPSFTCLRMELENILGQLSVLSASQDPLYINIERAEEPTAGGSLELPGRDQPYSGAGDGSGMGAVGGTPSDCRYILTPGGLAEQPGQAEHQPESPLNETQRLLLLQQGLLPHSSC

A549 = assay: Antiproliferative activity against human A549 cells after 72 hrs by CellTiter-Glo assay; format: functional, cell-based; conditions: A549, 72 h
RT-112 = assay: Antiproliferative activity against human RT112 cells after 72 hrs by CellTiter-Glo assay; format: functional, cell-based
[4] = (§1) Antiproliferative activity against human MGHU3 cells after 72 hrs by CellTiter-Glo assay; format: functional, cell-based
Homo sapiens = species on record: Homo sapiens; assay: as §1; format: functional, cell-based

Tyrosine-protein kinase receptor UFO (Homo sapiens), sequence (P30530 whole entry, the tested form may be a part): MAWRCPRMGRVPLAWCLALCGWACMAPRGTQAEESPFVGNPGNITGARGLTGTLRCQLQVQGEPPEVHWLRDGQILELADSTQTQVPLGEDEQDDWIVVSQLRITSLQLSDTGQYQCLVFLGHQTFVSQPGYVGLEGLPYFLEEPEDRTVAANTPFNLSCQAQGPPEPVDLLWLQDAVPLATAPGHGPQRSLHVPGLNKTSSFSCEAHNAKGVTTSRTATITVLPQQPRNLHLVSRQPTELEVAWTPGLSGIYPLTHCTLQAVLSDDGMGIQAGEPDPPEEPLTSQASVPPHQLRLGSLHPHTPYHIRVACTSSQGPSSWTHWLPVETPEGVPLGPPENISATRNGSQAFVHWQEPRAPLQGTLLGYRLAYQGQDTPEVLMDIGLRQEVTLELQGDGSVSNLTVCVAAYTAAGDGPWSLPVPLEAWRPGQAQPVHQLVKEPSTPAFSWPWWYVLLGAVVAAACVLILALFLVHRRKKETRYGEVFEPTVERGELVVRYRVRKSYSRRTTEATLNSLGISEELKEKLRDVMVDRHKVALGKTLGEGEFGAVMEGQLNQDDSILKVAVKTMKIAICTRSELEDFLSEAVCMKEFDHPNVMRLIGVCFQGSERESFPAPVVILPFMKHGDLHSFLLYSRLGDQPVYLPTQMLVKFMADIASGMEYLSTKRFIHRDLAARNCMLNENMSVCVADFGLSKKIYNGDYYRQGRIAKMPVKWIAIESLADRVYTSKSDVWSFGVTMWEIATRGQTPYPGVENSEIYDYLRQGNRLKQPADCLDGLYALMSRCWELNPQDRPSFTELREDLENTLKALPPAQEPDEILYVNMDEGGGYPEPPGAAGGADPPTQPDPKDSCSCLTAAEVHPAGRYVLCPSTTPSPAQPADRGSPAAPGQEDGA

Row | SMILES | inhibition [1] | inhibition [2] | inhibition [3] | pIC50 (A549) | pIC50 (RT-112; RT-112, 72 h) | pIC50 [4] | Activity (RT-112) | Activity (Homo sapiens)
1 | CCc1nc2c(Oc3ccc(NC(=O)c4cccn(-c5ccc(F)cc5)c4=O)cc3F)c(-c3cccnc3)cnc2[nH]1 | inactive | inactive | inactive | – | – | – | – | –
2 | CCc1nc2c(Oc3ccc(NC(=O)c4cccn(-c5ccc(F)cc5)c4=O)cc3F)c(-c3ccc(O)cc3)cnc2[nH]1 | inactive | inactive | inactive | – | – | – | – | –
3 | CC(C)c1nc2c(Oc3ccc(NC(=O)c4cccn(-c5ccc(F)cc5)c4=O)cc3F)c(-c3ccc(N(C)C)cc3)cnc2[nH]1 | inactive | inactive | inactive | – | – | – | – | –
4 | O=C(Nc1ccc(Oc2c(-c3ccccc3)cnc3[nH]cnc23)c(F)c1)c1cccn(-c2ccc(F)cc2)c1=O | inactive | inactive | inactive | – | – | – | – | –
5 | CC(C)c1nc2c(Oc3ccc(NC(=O)c4cccn(-c5ccc(F)cc5)c4=O)cc3F)c(-c3cccnc3)cnc2[nH]1 | inactive | inactive | inactive | – | – | – | – | –
6 | CCc1nc2c(Oc3ccc(NC(=O)c4cccn(-c5ccc(F)cc5)c4=O)cc3F)c(-c3ccoc3)cnc2[nH]1 | inactive | inactive | inactive | – | – | – | – | –
7 | CC(C)c1nc2c(Oc3ccc(NC(=O)c4cccn(-c5ccc(F)cc5)c4=O)cc3F)c(-c3ccncc3)cnc2[nH]1 | inactive | inactive | inactive | – | – | – | – | –
8 | COc1cc2/c(=N/c3ccc(Br)cc3F)nc[nH]c2cc1OCC1CCN(C)CC1 [VANDETANIB] | – | – | – | 5.30 to 5.60 | 5.30 to 5.60 | 5.30 to 5.60 | – | –
9 | CC(C)c1nc2c(Oc3ccc(NC(=O)c4cccn(-c5ccc(F)cc5)c4=O)cc3F)c(-c3ccc(O)cc3)cnc2[nH]1 | inactive | inactive | inactive | – | – | – | – | –
10 | CCOc1ccn(-c2ccc(F)cc2)c(=O)c1C(=O)Nc1ccc(Oc2ccnc(N)c2Cl)c(F)c1 | – | – | – | – | – | – | Active | Active
11 | COc1cc2nccc(Oc3ccc(NC(=O)C4(C(=O)Nc5ccc(F)cc5)CC4)cc3)c2cc1OC | – | – | – | – | – | – | Active | Active
12 | CCc1nc2c(Oc3ccc(NC(=O)c4cccn(-c5ccc(F)cc5)c4=O)cc3F)c(-c3ccncc3)cnc2[nH]1 | inactive | inactive | inactive | – | – | – | – | –
13 | CCc1nc2c(Oc3ccc(NC(=O)c4cccn(-c5ccc(F)cc5)c4=O)cc3F)c(-c3ccc(N(C)C)cc3)cnc2[nH]1 | inactive | inactive | inactive | – | – | – | – | –
14 | CC(C)c1nc2c(Oc3ccc(NC(=O)c4cccn(-c5ccc(F)cc5)c4=O)cc3F)c(-c3ccoc3)cnc2[nH]1 | inactive | inactive | inactive | – | – | – | – | –
